Measurements reported in article PMC11221653, “Isolation and characterization of plant-derived exosome-like nanoparticles from Carica papaya L. fruit and their potential as anti-inflammatory agent” (PLOS ONE, 2024).

What was measured:
[1] = parameters: method as in PMID 35494787; conditions: concentration 17.5 μM; ref [87]; cited from earlier work
[2] = tested on: NO production in LPS-induced RAW 264.7 cells; assay: Nitric oxide assay (Griess reagent, nitrite); type: cell-based; conditions: PDENs 5, 10, 20 μg/mL or dexamethasone 1 μg/ml for 24 h, then LPS 50 ng/mL for 6 h
Procedure: RAW 264.7 cells were cultured in 96-well plates, with a density of 1 × 10^4 cells per well and incubated for 24 hours. Following this, they were exposed to various concentrations of PDENs (0, 5, 10, and 20 μg/ml) and dexamethasone (1 μg/ml) (Sigma-Aldrich, USA) for 24 hours. Thereafter, the cells were treated with LPS (50 ng/mL) (Sigma-Aldrich, USA) for an additional 6 hours. To measure the nitric oxide in the culture media, we utilized the Protocol from Griess Reagent Kit for Nitrite Determination (G-7921) (Thermo Fisher Scientific, USA). Briefly, 50 microliters of cell culture medium from each treatment were mixed with Griess reagent (1:1) and incubated for 15 minutes in the dark. The samples were measured at a wavelength of 540 nm using a microplate reader Bio-Rad iMark.

Q: With `Cc1cc(C(C)(C)C)c(O)c(C(C)(C)C)c1` [butylated hydroxytoluene] as the molecule, how does the radical scavenging activity [1] read?
A: 58.4%

Q: For `CC1=C(O)C(=O)C(O)CO1` (stereo not drawn) [DDMP, 2,3-dihydro-3,5-dihydroxy-6-methyl-4H-pyran-4-one], which radical scavenging activity [1] is on record?
A: 81.1%

Q: For `C[C@@H]1C[C@H]2[C@@H]3CCC4=CC(=O)C=C[C@]4(C)[C@@]3(F)[C@@H](O)C[C@]2(C)[C@@]1(O)C(=O)CO` [dexamethasone], which “NO production versus LPS-induced cells” value [2] is on record?
A: significantly reduce NO production
